# Assay results taken from patent US20100234372A1, “SUBSTITUTED 2-MERCAPTOQUINOLINE-3-CARBOXAMIDES AS KCNQ2/3 MODULATORS” (GRUNENTHAL GMBH, priority 2009, published 2010).
# Target: T1, KCNQ2/3 channels (Homo sapiens, UniProt O43525+O43526)
# T1 construct: expressed in transfected cells; host or cells: CHO-K1 cells
# Assay: Fluorescence assay using a voltage-sensitive dye (fluorimetry)
# Assay type: cell-based
# Conditions: for EC50: CHO-K1 cells expressing KCNQ2/3 channels; for Emax at 1 µM: 50 μM retigabine = 100%, CHO-K1 cells expressing KCNQ2/3, read-out: Fluorimetry % efficacy at 1 μM (50 μM retigabine = 100%)
# Description: […] CHO-K1 cells expressing KCNQ2/3 channels are cultivated adherently at 37° C., 5% CO2 and 95% humidity in cell culture bottles (e.g. 80 cm^2 TC flasks, Nunc) with DMEM-high glucose (Sigma Aldrich, D7777) including 10% FCS (PAN Biotech, e.g. 3302-P270521) or alternatively MEM Alpha Medium (1×, liquid, Invitrogen, #22571), 10% foetal calf serum (FCS) (Invitrogen, #10270-106, heat-inactivated) and the necessary selection antibiotics.
# Before being seeded out for the measurements, the cells are washed with a 1×DPBS buffer without Ca^2+/Mg^2+ (e.g. Invitrogen, #14190-094) and detached from the bottom of the culture vessel by means of Accutase (PAA Laboratories, #L11-007) (incubation with Accutase for 15 min at 37° C.). The cell count then present is determined using a CASY™ cell counter (TCC model, Scharfe System) in order subsequently to apply 20,000 to 30,000 cells/well/100 μl of the described nutrient medium, depending on density optimisation for the individual cell line, to 96-well measuring plates of the Corning™ CeIIBIND™ type (flat clear-bottom black polystyrene microplates, #3340). Incubation is then carried out for one hour at room temperature, without gassing or adjusting the humidity, followed by incubation for 24 hours at 37° C., 5% CO2 and 95% humidity.
# The voltage-sensitive fluorescent dye from the Membrane Potential Assay Kit (Red™ bulk format part R8123 for FLIPR, MDS Analytical Technologies™) is prepared by dissolving the contents of a vessel of Membrane Potential Assay Kit Red Component A in 200 ml of extracellular buffer (ES buffer, 120 mM NaCl, 1 mM KCl, 10 mM HEPES, 2 mM CaCl2, 2 mM MgCl2, 10 mM glucose; pH 7.4). After removal of the nutrient medium, the cells are washed with 200 μl of ES buffer, then covered with a layer of 100 μl of the dye solution prepared above and incubated for 45 min at room temperature with exclusion of light.
# The fluorescence measurements are carried out with a BMG Labtech FLUOstar™, BMG Labtech NOVOstar™ or BMG Labtech POLARstar™ instrument (525 nm excitation, 560 nm emission, bottom-read mode). After incubation of the dye, 50 μl of the substances to be tested in the desired concentrations, or 50 μl of ES buffer for control purposes, are introduced into separate cavities of the measuring plate and incubated for 30 min at room temperature whilst being shielded from light. The fluorescence intensity of the dye is then measured for 5 min and the fluorescence value F1 of each well is thus determined at a given, constant time. 15 μl of a […] KCl solution ([…]) are then added to each well. The change in fluorescence is subsequently measured until all relevant measured values have been obtained (mainly 5-30 min). At a given time after KCl application, a fluorescence value F2 is determined, in this case at the time of the fluorescence peak.
# For calculation, the fluorescence intensity F2 is compared with the fluorescence intensity F1, and the agonistic activity of the target compound on the potassium channel is determined therefrom. F2 and F1 are calculated as follows: […]
# is determined by adding to the reaction batch only the buffer solution instead of the substance to be tested, determining the value F1K of the fluorescence intensity, adding the potassium ions as described above and measuring a value F2K of the fluorescence intensity. Then F2K and F1K are calculated as follows: […]
# Calculations of EC50 values are carried out with the aid of Prism v4.0 software (GraphPad Software™).
EC50 [nM],Emax at 1 µM [%],Structure (SMILES)
242,130,CCSc1nc2cc(C(F)(F)F)ccc2c(C)c1C(=O)NCc1ccc(C)cc1 [compound 83]
565,108,CCSc1nc2cc(C(F)(F)F)ccc2c(C)c1C(=O)NCc1ccc(OC)cc1 [compound 86]
950,65,CCSc1nc2ccccc2c(C)c1C(=O)NCc1cccc(F)c1 [compound 92]
627,96,CCSc1nc2cc(C(C)(C)C)ccc2c(C)c1C(=O)NCc1cccc(F)c1 [compound 95]
808,101,CCSc1nc2cc(C(C)(C)C)ccc2c(C)c1C(=O)NCc1ccc(F)cc1 [compound 96]
622,60,CCSc1nc2cc(OC)ccc2c(C)c1C(=O)NCc1cccc(F)c1 [compound 97]
404,70,CCSc1nc2cc(OC)ccc2c(C)c1C(=O)NCc1ccc(F)cc1 [compound 98]
623,90,CCSc1nc2ccc(C)cc2c(C)c1C(=O)NCc1cccc(F)c1 [compound 99]
337,45,CCSc1nc2ccc(C)cc2c(C)c1C(=O)NCc1ccc(F)cc1 [compound 100]
,17,CCSc1nc2ccc(OC)cc2c(C)c1C(=O)NCc1cccc(F)c1 [compound 101]
,14,CCSc1nc2ccc(OC)cc2c(C)c1C(=O)NCc1ccc(F)cc1 [compound 102]
,25,CCSc1nc2ccc(C(F)(F)F)cc2c(C)c1C(=O)NCc1ccc(F)cc1 [compound 104]
248,140,CCSc1nc2cc(F)ccc2c(C)c1C(=O)NCc1cccc(F)c1 [compound 105]
216,143,CCSc1nc2cc(F)ccc2c(C)c1C(=O)NCc1ccc(F)cc1 [compound 106]
499,161,CCSc1nc2cc(C)ccc2c(C)c1C(=O)NCc1cccc(F)c1 [compound 107]
509,149,CCSc1nc2cc(C)ccc2c(C)c1C(=O)NCc1ccc(F)cc1 [compound 108]
598,147,CCSc1nc2ccc(F)cc2c(C)c1C(=O)NCc1cccc(F)c1 [compound 116]
222,87,CCSc1nc2ccc(F)cc2c(C)c1C(=O)NCc1ccc(F)cc1 [compound 117]
2750,72,CCSc1nc2cc(C(F)(F)F)ccc2c(C)c1C(=O)NCc1ccc(O)cc1 [compound 119]
334,90,CCSc1nc2c(F)cccc2c(C)c1C(=O)NCc1ccc(F)cc1 [compound 121]
,8,CCSc1nc2cccc(F)c2c(C)c1C(=O)NCc1cccc(F)c1 [compound 123]
,8,CCSc1nc2cccc(F)c2c(C)c1C(=O)NCc1ccc(F)cc1 [compound 124]
,14,CCSc1nc2cccc(OC)c2c(C)c1C(=O)NCc1cccc(F)c1 [compound 125]
,5,CCSc1nc2cccc(OC)c2c(C)c1C(=O)NCc1ccc(F)cc1 [compound 126]
,18,CCSc1nc2cccc(O)c2c(C)c1C(=O)NCc1cccc(F)c1 [compound 127]

# Further lines, the compound ahead of its results:
Structure (SMILES),EC50 [nM],Emax at 1 µM [%]
CCSc1nc2cc(C(F)(F)F)ccc2c(C)c1C(=O)NCc1cccc(C(C)(C)C)c1 [compound 56],67,97
CCSc1nc2cc(C(F)(F)F)ccc2c(C)c1C(=O)NCCCC(C)C [compound 57],150,205
CCSc1nc2cc(C(F)(F)F)ccc2c(C)c1C(=O)NCc1ccc(C)s1 [compound 69],858,123
CCSc1nc2cc(C(F)(F)F)ccc2c(C)c1C(=O)NCc1cc(C)cs1 [compound 70],1460,114
CCSc1nc2cc(C(F)(F)F)ccc2c(C)c1C(=O)NCc1ccc(Cl)s1 [compound 71],305,163
CCSc1nc2cc(C(F)(F)F)ccc2c(C)c1C(=O)NCCc1cccs1 [compound 72],732,59
CCSc1nc2cc(C(F)(F)F)ccc2c(C)c1C(=O)NCC1CC2CCC1C2 (centres unmarked) [compound 73],,25
CCSc1nc2cc(C(F)(F)F)ccc2c(C)c1C(=O)NCc1ccccc1 [compound 74],163,128
CCSc1nc2cc(C(F)(F)F)ccc2c(C)c1C(=O)NCc1ccccc1F [compound 75],71,88
CCSc1nc2cc(C(F)(F)F)ccc2c(C)c1C(=O)NCc1ccccc1Cl [compound 78],,33
CCSc1nc2cc(C(F)(F)F)ccc2c(C)c1C(=O)NCc1cccc(Cl)c1 [compound 79],124,116
CCSc1nc2cc(C(F)(F)F)ccc2c(C)c1C(=O)NCc1ccc(Cl)cc1 [compound 80],148,135
CCSc1nc2cc(C(F)(F)F)ccc2c(C)c1C(=O)NCc1ccccc1C [compound 81],,28
CCSc1nc2cc(C(F)(F)F)ccc2c(C)c1C(=O)NCc1cccc(C)c1 [compound 82],219,108
CCSc1nc2cc(C(F)(F)F)ccc2c(C)c1C(=O)NCc1ccccc1OC [compound 84],,25
CCSc1nc2cc(C(F)(F)F)ccc2c(C)c1C(=O)NCc1cccc(OC)c1 [compound 85],413,89
CCSc1nc2cc(C(F)(F)F)ccc2c(C)c1C(=O)NCc1cc(F)cc(F)c1 [compound 87],144,159
CSc1nc2cc(C(F)(F)F)ccc2c(C)c1C(=O)NCc1cccs1 [compound 88],212,154
CCSc1nc2cc(C(F)(F)F)ccc2cc1C(=O)NCC(C)(C)C [compound 90],842,53
CCSc1nc2ccccc2c(C)c1C(=O)NCc1cccs1 [compound 91],1210,50
Cc1c(C(=O)NCc2cccc(F)c2)c(SC(C)(C)C)nc2cc(C(F)(F)F)ccc12 [compound 93],88,157
CCSc1nc2ccc(C(F)(F)F)cc2c(C)c1C(=O)NCc1cccc(F)c1 [compound 103],784,115
CCSc1nc2cc(C(F)(F)F)ccc2c(C)c1C(=O)NCc1ccco1 [compound 110],89,183
CCSc1nc2cc(C(F)(F)F)ccc2c(C)c1C(=O)NCc1ccc(C)o1 [compound 111],86,178
CCSc1nc2cc(C(F)(F)F)ccc2c(C)c1C(=O)NCc1cccc(O)c1 [compound 113],3990,66
CSc1nc2cc(C(F)(F)F)ccc2c(C)c1C(=O)NCc1cccc(F)c1 [compound 114],169,175
CSc1nc2cc(C(F)(F)F)ccc2c(C)c1C(=O)NCc1ccc(F)cc1 [compound 115],136,150
CCSc1nc2cc(F)c(F)cc2c(C)c1C(=O)NCc1cccc(F)c1 [compound 118],147,149
CCSc1nc2c(F)cccc2c(C)c1C(=O)NCc1cccc(F)c1 [compound 120],1210,157
"CCSc1nc2cc(C(F)(F)F)ccc2c(Cl)c1C(=O)NCc1cccc(F)c1 [compound 122, 4-Chloro-2-ethylsulfanyl-N-[(3-fluorophenyl)-methyl]-7-(trifluoromethyl)-quinoline-3-carboxamide]",65,171
